The results in this text go back to patent publication US20030158254A1, “Engineering absorption of therapeutic compounds via colonic transporters” (XenoPort, Inc., priority 2002, published 2003).

As a reminder, the IC50 is the midpoint of a concentration-inhibition curve.

One test concerns the target T1, human PEPT1 (Homo sapiens, UniProt P46059).
T1 construct: Rat and human PEPT1 and PEPT2 transporter cDNAs were subcloned into a modified pGEM plasmid; expressed in transfected cells; host or cells: Xenopus laevis oocytes injected with in vitro transcribed RNA
T1 sequence (P46059 1-708): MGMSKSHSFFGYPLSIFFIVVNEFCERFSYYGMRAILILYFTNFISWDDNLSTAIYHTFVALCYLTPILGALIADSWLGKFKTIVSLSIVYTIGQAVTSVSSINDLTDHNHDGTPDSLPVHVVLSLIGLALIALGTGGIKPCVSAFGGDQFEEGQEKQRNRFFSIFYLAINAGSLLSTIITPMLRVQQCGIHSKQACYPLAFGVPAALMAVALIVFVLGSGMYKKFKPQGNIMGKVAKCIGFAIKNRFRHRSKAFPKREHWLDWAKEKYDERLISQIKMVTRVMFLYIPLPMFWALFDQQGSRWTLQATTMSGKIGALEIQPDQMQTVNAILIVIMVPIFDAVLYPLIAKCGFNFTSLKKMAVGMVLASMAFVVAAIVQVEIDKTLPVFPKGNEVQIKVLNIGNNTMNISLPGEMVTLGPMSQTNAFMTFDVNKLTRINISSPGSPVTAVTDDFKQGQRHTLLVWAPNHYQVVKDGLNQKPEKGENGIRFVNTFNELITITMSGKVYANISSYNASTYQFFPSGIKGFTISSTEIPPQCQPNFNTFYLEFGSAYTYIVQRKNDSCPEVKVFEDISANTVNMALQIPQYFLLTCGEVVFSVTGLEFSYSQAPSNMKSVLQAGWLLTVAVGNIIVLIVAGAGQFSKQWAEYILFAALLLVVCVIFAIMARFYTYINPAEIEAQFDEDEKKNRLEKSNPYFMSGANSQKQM
As to the kind of experiment: Electrogenic transport (induced current) in Xenopus oocytes transfected with human PEPT1. The test is classed as cell-based. As for the experimental part:
Rat and human PEPT1 and PEPT2 expressing CHO cell lines were prepared as described in PCT Application WO01/20331. Gabapentin-containing dipeptides were evaluated for interaction with the peptide transporters using a radiolabeled substrate uptake assay in a competitive inhibition format, as described in PCT Application WO01/20331. Transport-induced currents were also measured in Xenopus oocytes transfected with rat and human PEPT1 and PEPT2.
RNA preparation: Rat and human PEPT1 and PEPT2 transporter cDNAs were subcloned into a modified pGEM plasmid that contains 5′ and 3′ untranslated sequences from the Xenopus β-actin gene. These sequences increase RNA stability and protein expression. Plasmid cDNA was linearized and used as template for in vitro transcription (Epicentre Technologies transcription kit, 4:1 methylated:non-methylated guanosine triphosphate(GTP)).
Xenopus oocyte isolation. Xenopus laevis frogs were anesthetized by immersion in Tricaine ([…] in deionized water) for 15 min. […]
Electrophysiology measurements. Transport currents were measured 2-14 days after injection, using a standard two-electrode electrophysiology set-up (Geneclamp 500 amplifier, Digidata 1320/PCLAMP software and ADInstruments hardware and software were used for signal acquisition). […]

The target of a further test is T2, hSMVT (Homo sapiens, UniProt Q9Y289).
T2 sequence (Q9Y289 1-635): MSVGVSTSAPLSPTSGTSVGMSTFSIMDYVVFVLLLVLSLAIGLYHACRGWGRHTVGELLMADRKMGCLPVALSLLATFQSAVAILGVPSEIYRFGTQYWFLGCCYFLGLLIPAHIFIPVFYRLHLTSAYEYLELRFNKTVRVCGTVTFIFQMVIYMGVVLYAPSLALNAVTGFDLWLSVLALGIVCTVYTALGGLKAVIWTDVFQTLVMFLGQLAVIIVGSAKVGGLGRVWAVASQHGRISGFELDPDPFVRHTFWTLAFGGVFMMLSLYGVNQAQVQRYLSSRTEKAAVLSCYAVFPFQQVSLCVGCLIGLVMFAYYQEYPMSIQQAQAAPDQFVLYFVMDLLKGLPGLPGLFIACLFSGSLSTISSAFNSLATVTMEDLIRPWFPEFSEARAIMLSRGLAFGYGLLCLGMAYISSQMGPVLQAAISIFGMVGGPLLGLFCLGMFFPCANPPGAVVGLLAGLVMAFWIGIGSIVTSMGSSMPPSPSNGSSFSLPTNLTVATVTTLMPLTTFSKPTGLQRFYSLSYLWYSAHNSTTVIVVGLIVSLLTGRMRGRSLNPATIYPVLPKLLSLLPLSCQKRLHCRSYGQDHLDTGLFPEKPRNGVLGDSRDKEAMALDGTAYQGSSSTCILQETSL
Kind of test: Radiolabeled competition assay in SMVT-expressing CHO cells. The test is classed as cell-based. The conditions noted are these: radiolabeled competition assay in SMVT-expressing CHO cells; read-out: IC50. From the text:
The complete open reading frame of human ATBO+(SLC6A14) and SMVT (SLC5A6) were amplified from human cDNA prepared from liver or intestine mRNA. […] Amplified PCR products were cloned into a modified version of the mammalian expression vector pcDNA3 (termed pMO) that was engineered to contain the 5′ and 3′ untranslated regions from the Xenopus beta-globin gene. All clones were completely sequenced and tested for function by transient transfection in HEK293 cells.
For cell uptake studies, stable CHOK1 clones were seeded into polylysine coated 96-well microtitre plates and grown for 2-3 days. Cells were incubated with experimental solutions (combinations of radiolabeled and unlabeled compounds) for 30 minutes at room temperature, washed four times, and lysed in scintillation solution. Accumulation of radiolabeled molecules was measured in a microtitre scintillation plate reader (Perkin Elmer). Inhibition constants (IC50s) were calculated using curve-fitting software (Prism).

Structures are written as SMILES.

In the case of `CC(C)(N)C(=O)NCC1(CC(=O)O)CCCCC1` [Compound V, a-aminoisobutyryl gabapentin], the “Vmax relative to reference substrate Gly-Sar” value at human PEPT1 (1 mM, oocytes transfected with human PEPT1) was 66%. The “Vmax relative to Gly-Sar in the presence of PEPT inhibitor Lys(ε-Dansyl)-Leu” value on human PEPT1 (human PEPT transfected oocytes, with Lys(ε-Dansyl)-Leu) is on record as less than 5%. Besides, the IC50 at hSMVT is 320 µM.
